Measured values from US8138168B1 (Takeda Pharmaceutical Company Limited, priority 2007, dated 2012).

What follows are compounds tested against T1, Recombinant human renin (Homo sapiens, UniProt P00797) (assay: In vitro enzymatic activity assay of renin inhibitors (fluorogenic peptide substrate)). Conditions: read-out: IC50 of Exemplified Compounds Against Renin.
T1 construct: isolate the active form (residues 67-406); made in house; host or cells: FreeStyle 293-F cells (transient expression of pcDNA3.1(+)/hREN)
T1 sequence (P00797 67-406): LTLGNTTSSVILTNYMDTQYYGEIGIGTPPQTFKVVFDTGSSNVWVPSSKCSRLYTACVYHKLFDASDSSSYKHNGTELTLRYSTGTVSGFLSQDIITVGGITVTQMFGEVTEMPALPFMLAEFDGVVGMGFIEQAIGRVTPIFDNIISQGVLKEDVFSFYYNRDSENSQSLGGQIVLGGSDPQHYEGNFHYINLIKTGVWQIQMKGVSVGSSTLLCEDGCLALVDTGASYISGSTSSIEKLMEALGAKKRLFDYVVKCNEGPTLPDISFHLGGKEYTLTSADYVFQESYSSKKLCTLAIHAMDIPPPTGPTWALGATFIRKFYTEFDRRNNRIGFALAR
Assay type: biochemical
Summary of the method: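 Recombinant human renin (3 nM final) pre-incubated 10 min at 37 °C with compounds in pH 7.4 Hepes/EDTA/DTT/0.1 mg/mL BSA/Brij35 buffer (optionally plus 2% BSA), 5% DMSO final; fluorogenic QXL520/HiLyteFluo488 peptide substrate added.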

Question: With `COCCCn1c([C@@H]2CCCN(C(=O)C[C@H](N)Cc3ccc(Oc4ccccc4)cc3)C2)nc2ccccc21` [Compound 238, (R)-3-amino-1((R)-3-(1-(3-methoxypropyl)-1H-benzo[d]imidazol-2-yl)piperidin-1-yl)-4-(4-phenoxyphenyl)butan-1-one] as the compound, how does the IC50 read?
Answer: Its IC50 is < 100 nM.

Question: For `CCCSc1ncccc1C(=O)N1C[C@@H](N)[C@H](C(=O)N2CCC[C@@H](c3nc4ccccc4n3CCCOC)C2)C1` [Compound 418], which IC50 is on record?
Answer: Its IC50 is > 1000 nM.

Question: Which IC50 does the source give for `COCCCn1c([C@@H]2CCCN(C(=O)C[C@H](N)Cc3ccc(-c4ccc(NC(C)=O)cc4)cc3)C2)nc2ccccc21` [Compound 129, N-(4′-((R)-2-amino-4-((R)-3-(1-(3-methoxypropyl)-1H-benzo[d]imidazol-2-yl)piperidin-1-yl)-4-oxobutyl)biphenyl-4-yl)acetamide] here?
Answer: The IC50 was < 100 nM.

Question: How did the IC50 turn out when `COCCCn1c([C@@H]2CCCN(C(=O)[C@@H]3CN(C(=O)c4ccc5ccccc5c4)C[C@H]3N)C2)nc2ccccc21` [Compound 362, ((3R,4S)-1-(2-naphthoyl)-4-aminopyrrolidin-3-yl)((R)-3-(1-(3-methoxypropyl)-1H-benzo[d]imidazol-2-yl)piperidin-1-yl)methanone] was run?
Answer: The IC50 was 100 to 1000 nM.

Question: How did the IC50 turn out when `CC(=O)Nc1ccc(-c2ccc(C[C@@H](N)CC(=O)N3CCC[C@@H](c4nc5ccccc5n4CCC(N)=O)C3)cc2)cc1` [Compound 486, 3-(2-((R)-1-((R)-4-(4′-acetamidobiphenyl-4-yl)-3-aminobutanoyl)piperidin-3-yl)-1H-benzo[d]imidazol-1-yl)propanamide] was run?
Answer: Its IC50 is 100 to 1000 nM.

Question: `COCCCn1c([C@@H]2CCCN(C(=O)C[C@H](N)CNC(=O)Nc3ccccc3Oc3ccccc3)C2)nc2ccccc21` [Compound 272, 1-((S)-2-amino-4-((R)-3-(1-(3-methoxypropyl)-1H-benzo[d]imidazol-2-yl)piperidin-1-yl)-4-oxobutyl)-3-(2-phenoxyphenyl)urea] was tested. Which IC50 did it give?
Answer: Its IC50 is 100 to 1000 nM.

Question: `COCCCn1c([C@@H]2CCCN(C(=O)C[C@H](N)CNC(=O)Nc3ccccc3C(C)(C)C)C2)nc2ccccc21` [Compound 302, 1-((S)-2-amino-4-((R)-3-(1-(3-methoxypropyl)-1H-benzo[d]imidazol-2-yl)piperidin-1-yl)-4-oxobutyl)-3-(2-tert-butylphenyl)urea] was tested. Which IC50 did it give?
Answer: The IC50 was 100 to 1000 nM.

Question: With `COCCCn1c([C@@H]2CCCN(C(=O)C[C@H](N)CNC(=O)c3ccc(C(=O)OC)cc3)C2)nc2ccccc21` [Compound 314, methyl 4-((S)-2-amino-4-((R)-3-(1-(3-methoxypropyl)-1H-benzo[d]imidazol-2-yl)piperidin-1-yl)-4-oxobutylcarbamoyl)benzoate] as the compound, how does the IC50 read?
Answer: Its IC50 is 100 to 1000 nM.

Question: Which IC50 does the source give for `CC(=O)NCCn1c([C@@H]2CCCN(C(=O)C[C@H](N)Cc3ccc(-c4ccc5c(c4)OC(F)(F)O5)cc3)C2)nc2c(C)cccc21` [Compound 474, N-(2-(2-((R)-1-((R)-3-amino-4-(4-(2,2-difluorobenzo[d][1,3]dioxol-5-yl)phenyl)butanoyl)piperidin-3-yl)-4-methyl-1H-benzo[d]imidazol-1-yl)ethyl)acetamide] here?
Answer: The IC50 was 100 to 1000 nM.

Question: Which IC50 does the source give for `N[C@@H](CC(=O)N1CCCC(c2nc3ccccc3[nH]2)C1)Cc1ccc(Cl)cc1` (stereo partly drawn) [Compound 23, (3R)-1-(3-(1H-Benzo[d]imidazol-2-yl)piperidin-1-yl)-3-amino-4-(4-chlorophenyl)butan-1-one] here?
Answer: Its IC50 is > 1000 nM.

Question: With `COCCCn1c([C@@H]2CCCN(C(=O)[C@@H]3CN(C(=O)Nc4ccccc4Cl)C[C@H]3N)C2)nc2ccccc21` [Compound 389, (3S,4R)-3-amino-N-(2-chlorophenyl)-4-((R)-3-(1-(3-methoxypropyl)-1H-benzo[d]imidazol-2-yl)piperidine-1-carbonyl)pyrrolidine-1-carboxamide] as the compound, how does the IC50 read?
Answer: Its IC50 is > 1000 nM.

Question: For `COc1cccc([C@@H](N)CC(=O)N2CCCC(c3nc4ccccc4[nH]3)C2)c1OC` (stereo partly drawn) [Compound 28, (3S)-1-(3-(1H-benzo[d]imidazol-2-yl)piperidin-1-yl)-3-amino-3-(2,3-dimethoxyphenyl)propan-1-one], which IC50 is on record?
Answer: The IC50 was > 1000 nM.

Question: With `COCCCn1c([C@@H]2CCCN(C(=O)[C@@H]3CN(S(=O)(=O)c4ccccc4Cl)C[C@H]3N)C2)nc2ccccc21` [Compound 346, ((3R,4S)-4-amino-1-(2-chlorophenylsulfonyl)pyrrolidin-3-yl)((R)-3-(1-(3-methoxypropyl)-1H-benzo[d]imidazol-2-yl)piperidin-1-yl)methanone] as the compound, how does the IC50 read?
Answer: The IC50 was 100 to 1000 nM.

Question: For `COCCCn1c([C@@H]2CCCN(C(=O)C[C@H](N)Cc3ccc4ccccc4c3)C2)nc2ccc(Cl)cc21` [Compound 99, (R)-3-amino-1-((R)-3-(6-chloro-1-(3-methoxypropyl)-1H-benzo[d]imidazol-2-yl)piperidin-1-yl)-4-(naphthalen-2-yl)butan-1-one], which IC50 is on record?
Answer: Its IC50 is 100 to 1000 nM.

Question: Which IC50 does the source give for `COCCCn1c([C@@H]2CCCN(C(=O)C[C@H](N)Cc3ccc(-c4ccc(C(=O)NCCOC)nc4)cc3)C2)nc2ccccc21` [Compound 195, 5-(4-((R)-2-amino-4-((R)-3-(1-(3-methoxypropyl)-1H-benzo[d]imidazol-2-yl)piperidin-yl)-4-oxobutyl)phenyl)-N-(2-methoxyethyl)picolinamide] here?
Answer: Its IC50 is < 100 nM.

Question: Which IC50 does the source give for `COCCCn1c([C@@H]2CCCN(C(=O)C[C@H](N)CNC(=O)c3ccccc3)C2)nc2ccccc21` [Compound 317, N-((S)-2-amino-4-((R)-3-(1-(3-methoxypropyl)-1H-benzo[d]imidazol-2-yl)piperidin-1-yl)-4-oxobutyl)benzamide] here?
Answer: Its IC50 is 100 to 1000 nM.

Question: How did the IC50 turn out when `COCCCn1c([C@@H]2CCCN(C(=O)C[C@H](N)Cc3ccc(-c4cncnc4)cc3)C2)nc2ccccc21` [Compound 149, (R)-3-Amino-1-((R)-3-(1-(3-methoxypropyl)-1H-benzo[d]imidazol-2-yl)piperidin-1-yl)-4-(4-(pyrimidin-5-yl)phenyl)butan-1-one] was run?
Answer: The IC50 was < 100 nM.

Question: Which IC50 does the source give for `COCCCn1c([C@@H]2CCCN(C(=O)C[C@H](N)Cc3ccc(-c4ccncc4)cc3)C2)nc2ccccc21` [Compound 126, (R)-3-amino-1-((R)-3-(1-(3-methoxypropyl)-1H-benzo[d]imidazol-2-yl)piperidin-1-yl)-4-(4-(pyridin-4-yl)phenyl)butan-1-one] here?
Answer: Its IC50 is < 100 nM.

Question: `COCCCn1c([C@@H]2CCCN(C(=O)C[C@@H](N)COc3nc4ccccc4[nH]3)C2)nc2ccccc21` [Compound 434, (R)-4-(1H-benzo[d]imidazol-2-yloxy)-3-amino-1-((R)-3-(1-(3-methoxypropyl)-1H-benzo[d]imidazol-2-yl)piperidin-1-yl)butan-1-one] was tested. Which IC50 did it give?
Answer: Its IC50 is 100 to 1000 nM.

Question: For `COCCCn1c([C@@H]2CCCN(C(=O)C[C@H](N)CNC(=O)Nc3ccccc3C(C)C)C2)nc2ccccc21` [Compound 301, 1-((S)-2-amino-4-((R)-3-(1-(3-methoxypropyl)-1H-benzo[d]imidazol-2-yl)piperidin-1-yl)-4-oxobutyl)-3-(2-isopropylphenyl)urea], which IC50 is on record?
Answer: The IC50 was 100 to 1000 nM.

Question: `COCCCn1c([C@@H]2CCCN(C(=O)C[C@H](N)Cc3ccc(-c4ccc(C(=O)NCCOC)c(F)c4)cc3)C2)nc2ccccc21` [Compound 191, 4′-((R)-2-Amino-4-((R)-3-(1-(3-methoxypropyl)-1H-benzoldlimidazol-2-yl)piperidin-1-yl)-4-oxobutyl)-3-fluoro-N-(2-methoxyethyl)biphenyl-4-carboxamide] was tested. Which IC50 did it give?
Answer: Its IC50 is < 100 nM.

Question: Which IC50 does the source give for `COCCCn1c([C@@H]2CCCN(C(=O)[C@@H]3CN(S(=O)(=O)c4ccc(Cl)c(Cl)c4)C[C@H]3N)C2)nc2ccccc21` [Compound 361, ((3R,4S)-4-amino-1-(3,4-dichlorophenylsulfonyl)pyrrolidin-3-yl)((R)-3-(1-(3-methoxypropyl)-1H-benzo[d]imidazol-2-yl)piperidin-1-yl)methanone] here?
Answer: The IC50 was 100 to 1000 nM.

Question: For `COCCCn1c([C@@H]2CCCN(C(=O)C[C@H](N)Cc3ccc(-c4ccc[nH]4)cc3)C2)nc2ccccc21` [Compound 153, (R)-4-(4-(1H-pyrrol-2-yl)phenyl)-3-amino-1-((R)-3-(1-(3-methoxypropyl)-1H-benzo[d]imidazol-2-yl)piperidin-1-yl)butan-1-one], which IC50 is on record?
Answer: Its IC50 is < 100 nM.

Question: `COCCCn1c([C@@H]2CCCN(C(=O)C[C@@H](N)Cc3ccc(Cl)cc3)C2)nc2ccccc21` [Compound 69, (S)-3-amino-4-(4-chlorophenyl)-1-((R)-3-(1-(3-methoxypropyl)-1H-benzo[d]imidazol-2-yl)piperidin-1-yl)butan-1-one] was tested. Which IC50 did it give?
Answer: The IC50 was > 1000 nM.

Question: Which IC50 does the source give for `COCCCn1c([C@@H]2CCCN(C(=O)C[C@H](N)Cc3ccc(-c4ccc5c(c4)NC(=O)C5)cc3)C2)nc2c(F)cccc21` [Compound 459, 6-(4-((R)-2-amino-4-((R)-3-(4-fluoro-1-(3-methoxypropyl)-1H-benzo[d]imidazol-2-yl)piperidin-l-yl)-4-oxobutyl)phenyl)indolin-2-one] here?
Answer: Its IC50 is < 100 nM.

Question: How did the IC50 turn out when `COc1ccc(-c2ccc(C[C@@H](N)CC(=O)N3CCC[C@@H](c4nc5ccccc5n4CCC(N)=O)C3)cc2)cc1` [Compound 487, 3-(2-((R)-1-((R)-3-amino-4-(4′-methoxybiphenyl-4-yl)butanoyl)piperidin-3-yl)-1H-benzo[d]imidazol-1-yl)propanamide] was run?
Answer: Its IC50 is 100 to 1000 nM.

Question: `CC(=O)NCCn1c([C@@H]2CCCN(C(=O)C[C@H](N)Cc3ccc(-c4ccc(O)nc4)cc3)C2)nc2c(C)cccc21` [Compound 473, N-(2-(2-((R)-1-((R)-3-amino-4-(4-(6-hydroxypyridin-3-yl)phenyl)butanoyl)piperidin-3-yl)-4-methyl-1H-benzo[d]imidazol-1-yl)ethyl)acetamide] was tested. Which IC50 did it give?
Answer: The IC50 was 100 to 1000 nM.
